Results taken from article PMC10600239, “Selective MCL-1 inhibitor ABBV-467 is efficacious in tumor models but is associated with cardiac troponin increases in patients” (Communications Medicine, 2023).
Where “and” joins values, the source holds several entries; their conditions need not be identical. Equal entries are not always repeated.

System: troponin
Experiment: Troponin monitoring in phase 1 patients
Assay type: in vivo, human
Conditions: for Troponin I, Central Laboratory: reference range ≤0.04 ng/mL; for Troponin T: patient, normal range 0-0.014
Description: Blood samples for plasma ABBV-467 concentration analysis were collected on days 1, 2, 3, and 15–17 of cycle 1 as well as on days 1 of cycles for PK analysis. Plasma samples of ABBV-467 were quantified using a validated LC-tandem MS with a lower limit of detection of 3 ng/mL. ABBV-467 PK parameters were calculated using standard non-compartmental approaches with Phoenix, WinNonlin (Version 8.0, Certara). AE severity was graded according to the National Cancer Institute Common Terminology Criteria for Adverse Events v5.0 for up to 30 days after the last dose. Analyses of AEs will include only treatment-emergent AEs. Triplicate ECGs were performed on days 1, 2, 15, and 16 of cycle 1. […] An echocardiogram was performed at screening and day 1 of cycle 2 and cycle 6. […]
Creatine Phosphokinase and Troponin Enzymes
Blood samples will be collected on the days specified in Section 2 for analysis of creatine phosphokinase and troponin serum concentrations. Clinical significance of these enzymes will be evaluated within the […]
context of the study. Samples should also be obtained as clinically indicated in the opinion of the investigator.
Table 9. Creatine Phosphokinase and Troponin Sampling Times […]
4, 8, 24, and 48 hours post-EOI
4, 8, 24 and 48 hours post-EOI
Sample times are relative to ABBV-467 infusion. […]

[1] = of the 4 patients with elevations

## Cc1c(Cl)c2c(Cl)c(C)c1-c1c(-c3ccc(F)cc3)sc3ncnc(c13)O[C@@H](C(=O)O)Cc1cc(ccc1OCc1ccnc(-c3ccc(OC[C@H]4COCCO4)cc3)n1)OC[C@@H](CN1CCN(C)CC1)O2 [ABBV-467]
Patient 5, C1D17 48hr Post EOI, study day 17
  Troponin I, Central Laboratory: <0.03 ng/mL
Patient 6, C1D1 4hr Post EOI, study day 1
  Troponin I, Central Laboratory: <0.03 ng/mL
Patient 6, C1D1 8hr post EOI, study day 1
  Troponin I, Central Laboratory: <0.03 ng/mL
Patient 6, C1D1 Predose, study day 1
  Troponin I, Central Laboratory: <0.03 ng/mL
Patient 6, C1D2 24h post EOI, study day 2
  Troponin I, Central Laboratory: <0.03 ng/mL
Patient 6, C1D3 48hr Post EOI, study day 3
  Troponin I, Central Laboratory: <0.03 ng/mL
Patient 6, C1D15 4hr Post EOI, study day 15
  Troponin I, Central Laboratory: <0.03 ng/mL
Patient 6, C1D15 8h post EOI, study day 15
  Troponin I, Central Laboratory: <0.03 ng/mL
Patient 6, C1D15 Predose, study day 15
  Troponin I, Central Laboratory: <0.03 ng/mL
Patient 6, C1D16 24h post EOI, study day 16
  Troponin I, Central Laboratory: <0.03 ng/mL
Patient 6, C1D17 48hr Post EOI, study day 17
  Troponin I, Central Laboratory: <0.03 ng/mL
Patient 7, C1D1 4hr Post EOI, study day 1
  Troponin I, Central Laboratory: <0.03 ng/mL
Patient 7, C1D1 8hr post EOI, study day 1
  Troponin I, Central Laboratory: <0.03 ng/mL
Patient 7, C1D1 Predose, study day 1
  Troponin I, Central Laboratory: <0.03 ng/mL
Patient 7, C1D2 24h post EOI, study day 2
  Troponin I, Central Laboratory: <0.03 ng/mL
Patient 7, C1D3 48hr Post EOI, study day 3
  Troponin I, Central Laboratory: <0.03 ng/mL
Patient 7, C1D15 4hr Post EOI, study day 15
  Troponin I, Central Laboratory: <0.03 ng/mL
Patient 7, C1D15 8h post EOI, study day 15
  Troponin I, Central Laboratory: <0.03 ng/mL
Patient 7, C1D15 Predose, study day 15
  Troponin I, Central Laboratory: <0.03 ng/mL
Patient 7, C1D16 24h post EOI, study day 16
  Troponin I, Central Laboratory: <0.03 ng/mL
Patient 7, C1D17 48hr Post EOI, study day 17
  Troponin I, Central Laboratory: <0.03 ng/mL
Patient 8, C1D1 4hr Post EOI, study day 1
  Troponin I, Central Laboratory: <0.03 ng/mL
Patient 8, C1D1 8hr post EOI, study day 1
  Troponin I, Central Laboratory: <0.03 ng/mL
Patient 8, C1D1 Predose, study day 1
  Troponin I, Central Laboratory: <0.03 ng/mL
Patient 8, C1D2 24h post EOI, study day 2
  Troponin I, Central Laboratory: <0.03 ng/mL
Patient 8, C1D3 48hr Post EOI, study day 3
  Troponin I, Central Laboratory: <0.03 ng/mL
Patient 8, C1D15 4hr Post EOI, study day 15
  Troponin I, Central Laboratory: <0.03 ng/mL
Patient 8, C1D15 8h post EOI, study day 15
  Troponin I, Central Laboratory: <0.03 ng/mL
Patient 8, C1D15 Predose, study day 15
  Troponin I, Central Laboratory: <0.03 ng/mL
Patient 8, C1D16 24h post EOI, study day 16
  Troponin I, Central Laboratory: <0.03 ng/mL
Patient 8, C1D17 48hr Post EOI, study day 17
  Troponin I, Central Laboratory: 0.03 ng/mL
Across the studied dose range
  relation of grade ≥1 elevated troponin to peak plasma concentration and AUC: unrelated
All doses, N = 8
  patients with troponin elevations: 4 (50%) patients (%)
Dose 0.32 mg/kg
  patients with troponin elevations: 1 (12.5%) patients (%)
human, in vivo
  first blood draw post-infusion at which troponin elevations were detectable: 4 h
[1]
  patients with grade 1 troponin elevation: 3 (75%) patients (%)
  patients with grade 3 troponin elevation: 1 (25%) patients (%)
LBDY 1
  Troponin T: 0.011 µg/L
LBDY 9
  Troponin T: 0.021 µg/L
LBDY 11
  Troponin T: 0.038 µg/L
LBDY 12
  Troponin T: 0.032 µg/L
LBDY 15
  Troponin T: 0.018 µg/L and 0.019 µg/L
LBDY 16
  Troponin T: 0.021 µg/L
LBDY 17
  Troponin T: 0.024 µg/L
LBDY 18
  Troponin T: 0.027 µg/L
LBDY 19
  Troponin T: 0.025 µg/L
LBDY 22
  Troponin T: 0.015 µg/L
LBDY 23
  Troponin T: 0.019 µg/L
LBDY 25
  Troponin T: 0.024 µg/L
LBDY 26
  Troponin T: 0.019 µg/L
LBDY 30 (Note: 29)
  Troponin T: 0.021 µg/L
LBDY 36 (Note: missing)
  Troponin T: 0.018 µg/L
LBDY 61 (Note: missing)
  Troponin T: 0.016 µg/L
Single patient
  troponin I, grade 3 elevation, multiple of upper limit of normal: 1.9 × upper limit of normal
